Results published in patent publication US20260125371A1, “METHOD FOR INHIBITING CLOSTRIDIOIDES DIFFICILE SPORE GERMINATION” (UNIVERSITY OF NOTRE DAME DU LAC, priority 2022, published 2026).
Converted amounts (≈) assume the structure as drawn. “And” between values parts separate entries of the source, which are not always exact repeats. Equal values may be shown once.

Legend:
[1] = tested on: S. aureus; experiment: MIC against S. aureus strains; type: cell-based; settings: S. aureus ATCC 29213, 24 h
[2] = tested on: C. difficile ATCC 43255; experiment: Determination of minimal-inhibitory concentrations (microdilution), C. difficile ATCC 43255; type: cell-based, Clostridioides difficile; settings: for MIC (μg/mL) 48 h: C. difficile ATCC 43255, 48-h incubation; for MIC (μg/mL) 24 h: C. difficile ATCC 43255, 24 h

Structure (SMILES)	MIC (μg/mL) 24 h [1] [µg/mL]	MIC (μg/mL) 48 h [2]	MIC (μg/mL) 24 h [2] [µg/mL]
Oc1ccc(-c2nc(-c3ccc(Oc4ccc(C(F)(F)F)cc4)cc3)no2)cc1O [Compound 12]	2 (≈ 4.83 µM)	128 µg/mL and >128 µg/mL	>128
COc1cc(-c2nc(-c3ccc(Oc4ccc(C(F)(F)F)cc4)cc3)no2)ccc1O [Compound 13]	>128	16 µg/mL (≈ 37.4 µM)	16 (≈ 37.4 µM)
O=c1ccc(-c2nc(-c3ccc(Oc4ccc(C(F)(F)F)cc4)cc3)no2)c[nH]1 [Compound 14]	>128	>128 µg/mL	>128
Nc1cc(-c2nc(-c3ccc(Oc4ccc(C(F)(F)F)cc4)cc3)no2)cnc1O [Compound 15]	>128	>128 µg/mL	>128
FC(F)(F)c1ccc(Oc2ccc(-c3noc(-c4ccc(Br)cc4)n3)cc2)cc1 [Compound 18]	>128	>128 µg/mL	>128
O=[N+]([O-])c1ccc(-c2nc(-c3ccc(Oc4ccc(C(F)(F)F)cc4)cc3)no2)cc1 [Compound 19]	≥128	>128 µg/mL	>128
Nc1ccc(-c2nc(-c3ccc(Oc4ccc(C(F)(F)F)cc4)cc3)no2)cc1F [Compound 20]	2 (≈ 4.82 µM)	>128 µg/mL	>128
COc1ccc(-c2nc(-c3ccc(Oc4ccc(C(F)(F)F)cc4)cc3)no2)cc1[N+](=O)[O-] [Compound 22]	>128	>128 µg/mL	>128
Nc1cc(-c2nc(-c3ccc(Oc4ccc(C(F)(F)F)cc4)cc3)no2)ccn1 [Compound 24]	>128	>128 µg/mL	>128
FC(F)(F)c1ccc(Oc2ccc(-c3noc(-c4cc[nH]n4)n3)cc2)cc1 [Compound 25]	>128	>128 µg/mL	>128
